Test [1] concerns cultured human mast cells (CHMC). The test is described as follows: CHMC low cell density IgE activation: tryptase assay. The note with it: IgE activation. The test is classed as cell-based. The method, boiled down: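 CHMC at 1000–1500 cells/well were preincubated 1 hr at 37° C., stimulated with anti-IgE for 30 minutes at 37° C., then pelleted. Supernatant tryptase was measured with a fluorogenic substrate after 30 min at room temperature, against un-stimulated control wells.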

The test system is the same in test [2]. The test is described as follows: CHMC low cell density ionomycin activation: tryptase assay. The test is classed as cell-based. Conditions: read-out: LD Tryptase, CHMC, Iono, 3 pt.
Where [3] appears, read: Homo sapiens, Mast cell, low cell density CHMC, tryptase, 3 pt, read-out: LD Tryptase, CHMC, IgE, 3 pt.
[4] abbreviates: Homo sapiens, Mast cell, low cell density CHMC, tryptase, 8 pt, read-out: LD Tryptase, CHMC, IgE, 8 pt.
Where [5] appears, read: Homo sapiens, Mast cell, low cell density CHMC, tryptase, 3 pt.
[6] abbreviates: Homo sapiens, Mast cell, low cell density, 3 pt, read-out: LD Tryptase, CHMC, IgE, 3 pt.
Where [7] appears, read: Homo sapiens, Mast cell, low cell density, 3 pt.
[8] abbreviates: low cell density CHMC, tryptase release, 3 point, read-out: LD Tryptase, CHMC, IgE, 3 pt.
Setting [9] is: low cell density CHMC, tryptase release, 8 point, read-out: LD Tryptase, CHMC, IgE, 8 pt.
[10] abbreviates: low cell density CHMC, tryptase release, 3 point.
Setting [11] is: Homo sapiens, Mast cell, low cell density CHMC, tryptase release, 3 point, read-out: LD Tryptase, CHMC, IgE, 3 pt.
The mark [12] stands for this setting: Homo sapiens, Mast cell, low cell density CHMC, tryptase release, 3 point.
The mark [13] stands for this setting: Homo sapiens, Mast cell, low cell density CHMC, tryptase readout, 3 pt, read-out: LD Tryptase, CHMC, IgE, 3 pt.
Where [14] appears, read: Homo sapiens, Mast cell, low cell density CHMC, tryptase readout, 3 pt.
Where [15] appears, read: low cell density CHMC, tryptase readout, 3 pt, read-out: LD Tryptase, CHMC, IgE, 3 pt.
Setting [16] is: low cell density CHMC, tryptase readout, 3 pt.

`COC(=O)CCNC(=O)c1ccc(Nc2ncc(F)c(Nc3ccc4c(c3)NC(=O)[C@H](C)O4)n2)cc1` [Compound 1303, (S)-5-Fluoro-N2-[4-[N-(2-methoxycarbonylethyl)aminocarbonyl]phenyl]-N4-(2-methyl-3-oxo-2H,4H-benz[1,4]oxazin-6-yl)-2,4-pyrimidinediamine]: the figures for the IC50 in test [1] (setting [3]), in test [1] (setting [4]) and in test [2] (setting [5]) were less than 10 µM, less than 10 µM and more than 10 µM, respectively.
For the compound `CN(c1nc(Nc2cccc(-c3ncco3)c2)ncc1F)C1CCC1` [Compound 1179, N4-Cyclobutyl-5-fluoro-N4-methyl-N2-[3-(oxazol-2-yl)phenyl]-2,4-pyrimidinediamine], the IC50 in test [1] (setting [3]) was less than 10 µM; in test [2] (setting [5]) it was more than 10 µM.
As for `COc1cc(OC)cc(N(C)c2nc(Cl)ncc2F)c1` [Compound 488], the values for the IC50 in test [1] (setting [6]) and in test [2] (setting [7]) were less than 10 µM and more than 10 µM, respectively.
Turning to `CNc1ncc(F)c(N(C)c2cc(Cl)c(OC)c(Cl)c2)n1` [Compound 501], the IC50 in test [1] (setting [6]) and in test [2] (setting [7]) was more than 10 µM each time.
For the compound `COc1ccc(Nc2nc(Nc3cccc(N4CCN(C(C)=O)CC4)c3)ncc2F)cc1OC` [Compound 429, N2-[3-(4-Acetylpiperazino)phenyl]-N4-(3,4-dimethoxyphenyl)-5-fluoro-2,4-pyrimidinediamine], the IC50 is less than 10 µM in test [1] (setting [3]) and more than 10 µM in test [2] (setting [5]).
`CC(C)Nc1ncc(F)c(N(C)c2ccc3c(c2)OCCO3)n1` [Compound 471, N4-(3,4-Ethylenedioxyphenyl)-5-fluoro-N2-isopropyl-N4-methyl-2,4-pyrimidinediamine]: the IC50 in test [1] (setting [6]) and in test [2] (setting [7]) was more than 10 µM each time.
Turning to `CCOC(=O)c1cc2cccc(Nc3ncc(F)c(Nc4ccc(OC)c(OC)c4)n3)c2[nH]1` [Compound 415, N4-(3,4-Dimethoxyphenyl)-N2-[2-(ethoxycarbonyl)indol-7-yl]-5-fluoro-2,4-pyrimidinediamine], the figures for the IC50 in test [1] (setting [3]), in test [1] (setting [4]) and in test [2] (setting [5]) were less than 10 µM, less than 10 µM and more than 10 µM, respectively.
For `COC(=O)Cn1ccc2cc(Nc3ncc(F)c(Nc4ccc5c(c4)OCCO5)n3)ccc21` [Compound 647, N4-(3,4-Ethylenedioxyphenyl)-5-fluoro-N2-[1-(methoxycarbonylmethylene)indol-5-yl]-2,4-pyrimidinediamine], the figures for the IC50 in test [1] (setting [8]), in test [1] (setting [9]) and in test [2] (setting [10]) were less than 10 µM, less than 10 µM and more than 10 µM, respectively.
Take `CC1(C)Oc2ccc(Nc3nc(Nc4ccc5c(cnn5CCCNS(C)(=O)=O)c4)ncc3F)cc2NC1=O` [Compound 834, N4-(2,2-Dimethyl-3-oxo-4H-benz[1,4]oxazin-6-yl)-5-fluoro-N2-[1-[3-(N-methylsulfonylamino)propyl]indazol-5-yl]-2,4-pyrimidinediamine]: the IC50 in test [1] (Homo sapiens, Mast cell, low cell density CHMC, tryptase release, 3 pt, read-out: LD Tryptase, CHMC, IgE, 3 pt) is more than 10 µM; in test [1] (Homo sapiens, Mast cell, low cell density CHMC, tryptase release, 8 pt, read-out: LD Tryptase, CHMC, IgE, 8 pt) it was less than 10 µM; in test [2] (Homo sapiens, Mast cell, low cell density CHMC, tryptase release, 3 pt), more than 10 µM.
In the case of `CNC(=O)c1cc(Nc2ncc(F)c(Nc3ccc(OC)c(OC)c3)n2)ccc1Cl` [Compound 449, N2-[4-Chloro-3-(N-methylamino)carbonylphenyl]-N4-(3,4-dimethoxyphenyl)-5-fluoro-2,4-pyrimidinediamine], the figures for the IC50 in test [1] (setting [3]) and in test [2] (setting [5]) were less than 10 µM and more than 10 µM, respectively.
As for `CC(C)(C)OC(=O)N1CC(Nc2nc(Nc3ccc(N4CCOCC4)cc3)ncc2F)C1` [Compound 1118, N4-(1-tert-Butoxycarbonylazetidin-3-yl)-5-fluoro-N2-(4-morpholinophenyl)-2,4-pyrimidinediamine], the IC50 in test [1] (setting [3]) and in test [2] (setting [5]) was less than 10 µM in each case.
As for `CCn1ncc2ccc(Nc3ncc(F)c(Nc4ccc(OC)c(Cl)c4)n3)cc21` [Compound 698, N4-(3-Chloro-4-methoxyphenyl)-N2-(1-ethylindazol-6-yl)-5-fluoro-2,4-pyrimidinediamine], the values for the IC50 in test [1] (setting [3]), in test [1] (setting [4]) and in test [2] (setting [5]) were less than 10 µM, less than 10 µM and more than 10 µM, respectively.
As to `CNC(=O)c1ccc(Nc2ncc(F)c(N(C)c3cc(C)c(Cl)c(C)c3)n2)cc1Cl` [Compound 613, N4-(4-Chloro-3,5-dimethylphenyl)-N2-[3-chloro-4-(N-methylamino)carbonylphenyl]-5-fluoro-N4-methyl-2,4-pyrimidinediamine], the values for the IC50 in test [1] (setting [11]) and in test [2] (setting [12]) were less than 10 µM and more than 10 µM, respectively.
Regarding `CC(=O)N1CCN(c2cccc(Nc3ncc(F)c(Nc4cccc(NC5=NCCN5)c4)n3)c2)CC1` [Compound 1106], the IC50 in test [1] (setting [13]) and in test [2] (setting [14]) was more than 10 µM each time.
For the compound `COc1cc(Nc2ncc(F)c(N(C)c3ccc(OC(C)C)nc3)n2)cc(OC)c1` [Compound 581, N2-(3,5-Dimethoxyphenyl)-5-fluoro-N4-(2-isopropoxypyrid-5-yl)-N4-methyl-2,4-pyrimidinediamine], the results for the IC50 in test [1] (setting [11]) and in test [2] (setting [12]) were less than 10 µM and more than 10 µM, respectively.
As for `CNC(=O)COc1cccc(Nc2ncc(F)c(N(C)c3cc(OC)cc(OC)c3)n2)c1` [Compound 398, N4-(3,5-Dimethoxyphenyl)-5-fluoro-N4-methyl-N2-[3-(N-methylamino)carbonylmethyleneoxyphenyl]-2,4-pyrimidinediamine], the IC50 in test [1] (low cell density CHMC, tryptase, 3 pt, read-out: LD Tryptase, CHMC, IgE, 3 pt) is less than 10 µM; in test [2] (low cell density CHMC, tryptase, 3 pt), more than 10 µM.
For the compound `CNC(=O)COc1c(C)cc(Nc2ncc(F)c(Nc3ccc4c(n3)NC(=O)C(C)(C)O4)n2)cc1C` [Compound 1041, N2-[3,5-Dimethyl-4-(N-methylamino)carbonylmethyleneoxyphenyl]-N4-(2,2-dimethyl-3-oxo-4H-5-pyrid[1,4]oxazin-6-yl)-5-fluoro-2,4-pyrimidinediamine], the IC50 in test [1] (setting [15]) is less than 10 µM; in test [1] (low cell density CHMC, tryptase readout, 8 pt, read-out: LD Tryptase, CHMC, IgE, 8 pt) it was less than 10 µM; in test [2] (setting [16]) it was less than 10 µM.
Take `CC(C)(C)c1cc(Nc2ncc(F)c(Nc3ccc4c(n3)NC(=O)CO4)n2)n[nH]1` [Compound 1086, N2-(5-tert-Butylpyrazol-3-yl)-5-fluoro-N4-(3-oxo-2H,4H-5-pyrid[1,4]oxazin-6-yl)-2,4-pyrimidinediamine]: the IC50 in test [1] (setting [15]) was less than 10 µM; in test [2] (setting [16]), more than 10 µM.
Turning to `O=C1Nc2cc(Nc3nc(Nc4cccc(-c5ncco5)c4)ncc3F)ccc2OC1(F)F` [Compound 1284], the IC50 is less than 10 µM in test [1] (setting [3]), less than 10 µM in test [1] (setting [4]) and more than 10 µM in test [2] (setting [5]).
On to `COC(=O)N1CCN(c2ccc(Nc3ncc(F)c(Nc4cc(C(C)(C)C)[nH]n4)n3)cc2)CC1` [Compound 1103], for which the IC50 in test [1] (setting [13]) is less than 10 µM; in test [1] (Homo sapiens, Mast cell, low cell density CHMC, tryptase readout, 8 pt, read-out: LD Tryptase, CHMC, IgE, 8 pt) it was less than 10 µM; in test [2] (setting [14]) it was more than 10 µM.
Turning to `COc1cc(Nc2ncc(F)c(Nc3ccc(OC)c(OC)c3)n2)cc(OC)c1` [Compound 414, N2-(3,5-Dimethoxyphenyl)-N4-(3,4-dimethoxyphenyl)-5-fluoro-2,4-pyrimidinediamine], the IC50 in test [1] (setting [3]) was less than 10 µM; in test [1] (setting [4]) it was less than 10 µM; in test [2] (setting [5]), more than 10 µM.
Consider `CNC(=O)Cn1ccc2ccc(Nc3ncc(F)c(Nc4ccc(OC(F)(F)F)c(Cl)c4)n3)cc21` [Compound 662, N4-(3-Chloro-4-trifluoromethoxyphenyl)-5-fluoro-N2-[1-(N-methylamino)carbonylmethyleneindol-6-yl]-2,4-pyrimidinediamine], for which the figures for the IC50 in test [1] (setting [8]), in test [1] (setting [9]) and in test [2] (setting [10]) were less than 10 µM, less than 10 µM and more than 10 µM, respectively.
Take `COc1ccc(Nc2ncc(F)c(Nc3cccc(O)c3)n2)c(OC)n1` [Compound 472]: the IC50 was less than 10 µM in test [1] (setting [6]) and more than 10 µM in test [2] (setting [7]).
`CNC(=O)COc1cccc(Nc2ncc(F)c(Nc3ccc4c(c3)N(C)C(=O)CS4)n2)c1` [Compound 259, 5-Fluoro-N2-[3-(N-methylamino)carbonylmethyleneoxyphenyl]-N4-(4-methyl-3-oxo-2H-benzo[1,4]thiazin-6-yl)-2,4-pyrimidinediamine]: the IC50 was less than 10 µM in test [1] (low cell density CHMC, tryptase release, 3 pt, read-out: LD Tryptase, CHMC, IgE, 3 pt); less than 10 µM in test [1] (low cell density CHMC, tryptase release, 8 pt, read-out: LD Tryptase, CHMC, IgE, 8 pt); more than 10 µM in test [2] (low cell density CHMC, tryptase release, 3 pt).
Consider `COc1cc(Nc2ncc(F)c(N(C)c3ccc4c(c3)NC(=O)C(C)(C)O4)n2)cc(OC)c1` [Compound 388], for which the IC50 in test [1] (setting [3]) and in test [2] (setting [5]) was more than 10 µM each time.
On to `COc1ccc(N(C)c2nc(Cl)ncc2F)cn1` [Compound 657], for which the IC50 in test [1] (setting [11]) and in test [2] (setting [12]) was more than 10 µM throughout.

The record behind these values is patent US20220073536A1 (Rigel Pharmaceuticals, Inc., priority 2003, published 2022).
